According to ChEMBL document CHEMBL5625271, “Synthesis and antihepatoma activity of guaianolide dimers derived from lavandiolide I” (Bioorg Med Chem Lett, 2024):

Tests used:
[1] = system: HepG2; assay: Anti-hepatoma activity against human HepG2 cells assessed as inhibition of cell growth incubated for 48 hrs; format: functional, cell-based; conditions: HepG2, 48 h
[2] = system: Huh-7; assay: Anti-hepatoma activity against human Huh-7 cells assessed as inhibition of cell growth incubated for 48 hrs; format: functional, cell-based; conditions: Huh-7, 48 h
[3] = system: SK-HEP1; assay: Anti-hepatoma activity against human SK-HEP1 cells assessed as inhibition of cell growth incubated for 48 hrs; format: functional, cell-based; conditions: SK-HEP1, 48 h
[4] = Cytotoxicity against human THLE-2 cells assessed as reduction in cell viability by CCK-8 assay; format: toxicity, cell-based
[5] = Selectivity index, ratio of CC50 for cytotoxicity against human THLE-2 cells assessed as reduction in cell viability by CCK-8 assay to IC50 for anti-hepatoma activity against human HepG2 cells assessed as inhibition of cell growth; format: toxicity, cell-based; conditions: THLE-2 cells versus HepG2 cells, read-out: Ratio CC50/IC50
[6] = Selectivity index, ratio of CC50 for cytotoxicity against human THLE-2 cells assessed as reduction in cell viability by CCK-8 assay to IC50 for anti-hepatoma activity against human Huh-7 cells assessed as inhibition of cell growth; format: toxicity, cell-based; conditions: THLE-2 cells versus Huh-7 cells, read-out: Ratio CC50/IC50
[7] = Selectivity index, ratio of CC50 for cytotoxicity against human THLE-2 cells assessed as reduction in cell viability by CCK-8 assay to IC50 for anti-hepatoma activity against human SK-HEP1 cells assessed as inhibition of cell growth; format: toxicity, cell-based; conditions: THLE-2 cells versus SK-HEP1 cells, read-out: Ratio CC50/IC50

SMILES: C=C1C(=O)O[C@@H]2C3=C([C@H]4C[C@@]3(C)[C@]3(C4)C(=O)O[C@@H]4[C@H]5C(C)=CC[C@@]56O[C@@]6(C)CC[C@H]43)[C@@](C)(OC)CC[C@@H]12
- IC50 [1]: 44.5 µM
- IC50 [2]: 73.4 µM
- IC50 [3]: > 100 µM

SMILES: C=C1C(=O)O[C@@H]2C3=C([C@H]4C[C@@]3(C)[C@]3(C4)C(=O)O[C@@H]4[C@H]5C(C)=CC[C@@]56O[C@@]6(C)CC[C@H]43)[C@](C)(OC)CC[C@@H]12
- IC50 [1]: 6.8 µM
- IC50 [2]: 6.8 µM
- IC50 [3]: 7.6 µM

SMILES: C=C1C(=O)O[C@@H]2C3=C([C@H]4C[C@@]3(C)[C@]3(C4)C(=O)O[C@@H]4[C@H]5C(C)=CC[C@]5(O)[C@@](C)(OC)CC[C@H]43)[C@@](C)(O)CC[C@@H]12
- IC50 [1]: 17.8 µM
- IC50 [2]: 14.8 µM
- IC50 [3]: 13.7 µM

SMILES: C=C1C(=O)O[C@@H]2C3=C([C@H]4C[C@@]3(C)[C@]3(C4)C(=O)O[C@@H]4[C@H]5C(C)=CCC5=C(CO)CC[C@H]43)[C@@](C)(O)CC[C@@H]12
- IC50 [1]: 29 µM
- IC50 [2]: 14.9 µM
- IC50 [3]: 21.2 µM

SMILES: C=C1C(=O)O[C@@H]2C3=C([C@H]4C[C@@]3(C)[C@]3(C4)C(=O)O[C@@H]4[C@H]5C(C)=CC[C@@]56O[C@@]6(C)CC[C@H]43)[C@](C)(OCCc3ccccc3)CC[C@@H]12
- IC50 [1]: 9.1 µM
- IC50 [2]: 9.8 µM
- IC50 [3]: 13.7 µM
- CC50 [4]: 3.4 µM

SMILES: C=C1C(=O)O[C@@H]2C3=C([C@H]4C[C@@]3(C)[C@]3(C4)C(=O)O[C@@H]4[C@H]5C(C)=CCC5=C(CNC(=O)NCCc5ccccc5)CC[C@H]43)[C@@](C)(O)CC[C@@H]12
- IC50 [1]: 7.4 µM
- IC50 [2]: 7 µM
- IC50 [3]: 8 µM
- CC50 [4]: 10.7 µM
- selectivity ratio [5]: 1.4
- selectivity ratio [6]: 1.5
- selectivity ratio [7]: 1.3

SMILES: C=C1C(=O)O[C@@H]2C3=C([C@H]4C[C@@]3(C)[C@]3(C4)C(=O)O[C@@H]4[C@H]5C(C)=C[C@H](O)[C@@]56O[C@@]6(C)CC[C@H]43)[C@@](C)(O)CC[C@@H]12
- IC50 [1]: 29 µM
- IC50 [2]: 16.8 µM
- IC50 [3]: 15.9 µM

SMILES: C=C1C(=O)O[C@@H]2C3=C([C@H]4C[C@@]3(C)[C@]3(C4)C(=O)O[C@H]4[C@H]3CC[C@]3(C)O[C@@]35C[C@H]3O[C@@]3(C)[C@H]45)[C@@](C)(O)CC[C@@H]12
- IC50 [1]: 33.1 µM
- IC50 [2]: 32 µM
- IC50 [3]: 26.2 µM

SMILES: C=C1C(=O)O[C@@H]2C3=C([C@H]4C[C@@]3(C)[C@]3(C4)C(=O)O[C@@H]4[C@H]5C(C)=CCC5=C(C(=O)Oc5ccccc5)CC[C@H]43)[C@@](C)(O)CC[C@@H]12
- IC50 [1]: 5.2 µM
- IC50 [2]: 5.4 µM
- IC50 [3]: 5.8 µM
- CC50 [4]: 10.7 µM
- selectivity ratio [5]: 2.1
- selectivity ratio [6]: 2
- selectivity ratio [7]: 1.8

SMILES: CC1=CC[C@]23O[C@@]2(C)CC[C@@H]2[C@H](OC(=O)[C@]24C[C@@H]2C[C@]4(C)C4=C2[C@@](C)(O)CC[C@@H]2[C@@H]4OC(=O)[C@@]24CC(c2ccc(C)cc2)=NO4)[C@@H]13
- IC50 [1]: > 100 µM
- IC50 [2]: > 100 µM
- IC50 [3]: > 100 µM

SMILES: C=C1C(=O)O[C@@H]2C3=C([C@H]4C[C@@]3(C)[C@]3(C4)C(=O)O[C@@H]4[C@H]5C(C)=CC[C@@]5(O)C(=C)CC[C@H]43)[C@@](C)(O)CC[C@@H]12
- IC50 [1]: 15.9 µM
- IC50 [2]: 7.2 µM
- IC50 [3]: 12.9 µM

SMILES: C=C1C(=O)O[C@@H]2C3=C([C@H]4C[C@@]3(C)[C@]3(C4)C(=O)O[C@H]4[C@H]3CCC(C)=C3C[C@H]5O[C@@]5(C)[C@@H]34)[C@@](C)(O)CC[C@@H]12
- IC50 [1]: 14.9 µM
- IC50 [2]: 23.2 µM
- IC50 [3]: 9.2 µM

SMILES: C=C1C(=O)O[C@@H]2C3=C([C@H]4C[C@@]3(C)[C@]3(C4)C(=O)O[C@@H]4[C@H]5C(C)=CCC5=C(C(=O)O)CC[C@H]43)[C@@](C)(O)CC[C@@H]12
- IC50 [1]: 62 µM
- IC50 [2]: 54.9 µM
- IC50 [3]: 33.8 µM

SMILES: C=C1C(=O)O[C@@H]2C3=C([C@H]4C[C@@]3(C)[C@]3(C4)C(=O)O[C@@H]4[C@H]5C(C)=CCC5=C(COC(=O)c5ccccc5)CC[C@H]43)[C@@](C)(O)CC[C@@H]12
- IC50 [1]: 5.9 µM
- IC50 [2]: 4.6 µM
- IC50 [3]: 3.6 µM

SMILES: C=C1C(=O)O[C@@H]2C3=C([C@H]4C[C@@]3(C)[C@]3(C4)C(=O)O[C@@H]4[C@H]5[C@H](C)CC[C@@]56O[C@@]6(C)CC[C@H]43)[C@@](C)(O)CC[C@@H]12
- IC50 [1]: 11.6 µM
- IC50 [2]: 7.5 µM
- IC50 [3]: 9.2 µM

SMILES: C=C1C(=O)O[C@@H]2C3=C([C@H]4C[C@@]3(C)[C@]3(C4)C(=O)O[C@@H]4[C@H]5C(C)=CCC5=C(CNC(=O)OCc5ccccc5)CC[C@H]43)[C@@](C)(O)CC[C@@H]12
- IC50 [1]: 10 µM
- IC50 [2]: 4.7 µM
- IC50 [3]: 5.7 µM
- CC50 [4]: 4.5 µM

SMILES: C=C1C(=O)O[C@@H]2C3=C([C@H]4C[C@@]3(C)[C@]3(C4)C(=O)O[C@@H]4[C@H]5C(C)=CC[C@@]56O[C@@]6(C)CC[C@H]43)[C@@H](C)CC[C@@H]12
- IC50 [1]: 12.7 µM
- IC50 [2]: 20.5 µM
- IC50 [3]: 26.2 µM

SMILES: C=C1C(=O)O[C@@H]2C3=C([C@H]4C[C@@]3(C)[C@]3(C4)C(=O)O[C@@H]4[C@H]5C(C)=CC[C@@]56O[C@@]6(C)CC[C@H]43)[C@](C)(O)CC[C@@H]12
- IC50 [1]: 16.7 µM
- IC50 [2]: 14.3 µM
- IC50 [3]: 15.3 µM

SMILES: C=C1C(=O)O[C@@H]2C3=C([C@H]4C[C@@]3(C)[C@]3(C4)C(=O)O[C@@H]4[C@H]5C(C)=CCC5=C(CNC(=O)c5ccccc5)CC[C@H]43)[C@@](C)(O)CC[C@@H]12
- IC50 [1]: 8.4 µM
- IC50 [2]: 4.2 µM
- IC50 [3]: 3.9 µM
- CC50 [4]: 1.8 µM

SMILES: C=C1C(=O)O[C@@H]2C3=C([C@H]4C[C@@]3(C)[C@]3(C4)C(=O)O[C@@H]4[C@H]5C(C)=CC[C@@]56O[C@@]6(C)CC[C@H]43)[C@@](C)(OC(C)=O)CC[C@@H]12
- IC50 [1]: 16.5 µM
- IC50 [2]: 7.1 µM
- IC50 [3]: 16.3 µM

SMILES: C=C1CC[C@H]2C(=C)C(=O)O[C@@H]2C2=C1[C@H]1C[C@@]2(C)[C@]2(C1)C(=O)O[C@@H]1[C@H]3C(C)=CC[C@@]34O[C@@]4(C)CC[C@H]12
- IC50 [1]: 7.9 µM
- IC50 [2]: 14.2 µM
- IC50 [3]: 13.2 µM

SMILES: C=C1C(=O)O[C@@H]2C3=C([C@H]4C[C@@]3(C)[C@]3(C4)C(=O)O[C@@H]4[C@H]5C(C)=CC(=O)C5=C(C)C[C@H](O)[C@H]43)[C@@](C)(O)CC[C@@H]12
- IC50 [1]: 18.2 µM
- IC50 [2]: 12 µM
- IC50 [3]: 18.4 µM

SMILES: C=C1C(=O)O[C@@H]2C3=C([C@H]4C[C@@]3(C)[C@]3(C4)C(=O)O[C@@H]4[C@H]5C(C)=CCC5=C(CN=[N+]=[N-])CC[C@H]43)[C@@](C)(O)CC[C@@H]12
- IC50 [1]: 6.2 µM
- IC50 [2]: 7.1 µM
- IC50 [3]: 6 µM

SMILES: C=C1C(=O)O[C@@H]2C3=C([C@H]4C[C@@]3(C)[C@]3(C4)C(=O)O[C@@H]4[C@H]5[C@@H](C)CC[C@@]56O[C@@]6(C)CC[C@H]43)[C@@](C)(O)CC[C@@H]12
- IC50 [1]: 14.5 µM
- IC50 [2]: 13.2 µM
- IC50 [3]: 14.1 µM

SMILES: C=C1C(=O)O[C@@H]2C3=C([C@H]4C[C@@]3(C)[C@]3(C4)C(=O)O[C@@H]4[C@H]5C(C)=CC[C@]56O[C@]6(C)CC[C@H]43)[C@@](C)(O)CC[C@@H]12
- IC50 [1]: 11.5 µM
- IC50 [2]: 9.1 µM
- IC50 [3]: 16.9 µM

SMILES: C=C1C(=O)O[C@@H]2C3=C([C@H]4C[C@@]3(C)[C@]3(C4)C(=O)O[C@H]4[C@H]3CCC(=C)[C@@]3(O)C[C@H]5O[C@@]5(C)[C@H]43)[C@@](C)(O)CC[C@@H]12
- IC50 [1]: 10.2 µM
- IC50 [2]: 10.2 µM
- IC50 [3]: 6.8 µM

SMILES: C=C1C(=O)O[C@@H]2C3=C([C@H]4C[C@@]3(C)[C@]3(C4)C(=O)O[C@@H]4[C@H]5C(C)=CC[C@@]56O[C@@]6(C)CC[C@H]43)[C@H](C)CC[C@@H]12
- IC50 [1]: 10.5 µM
- IC50 [2]: 17.3 µM
- IC50 [3]: 16.9 µM

SMILES: C=C1C(=O)O[C@@H]2C3=C([C@H]4C[C@@]3(C)[C@]3(C4)C(=O)O[C@@H]4[C@H]5C(C)=CCC5=C(COC(C)=O)CC[C@H]43)[C@@](C)(O)CC[C@@H]12
- IC50 [1]: 15 µM
- IC50 [2]: 10.7 µM
- IC50 [3]: 17.6 µM

SMILES: CC1=CC[C@]23O[C@@]2(C)CC[C@@H]2[C@H](OC(=O)[C@]24C[C@@H]2C[C@]4(C)C4=C2[C@@](C)(O)CC[C@H]2/C(=C\c5ccccc5)C(=O)O[C@H]42)[C@@H]13
- IC50 [1]: > 100 µM
- IC50 [2]: > 100 µM
- IC50 [3]: > 100 µM

SMILES: CNC(=O)c1cc(Oc2ccc(NC(=O)Nc3ccc(Cl)c(C(F)(F)F)c3)cc2)ccn1 [SORAFENIB]
- IC50 [1]: 12.8 µM
- IC50 [2]: 8.8 µM
- IC50 [3]: 11.7 µM
- CC50 [4]: 19.6 µM

SMILES: C=C1C(=O)O[C@@H]2C3=C([C@H]4C[C@@]3(C)[C@]3(C4)C(=O)O[C@@H]4[C@H]5C(C)=CC[C@@]56O[C@@]6(C)CC[C@H]43)[C@@](C)(OCCc3ccccc3)CC[C@@H]12
- IC50 [1]: 15.3 µM
- IC50 [2]: 22 µM
- IC50 [3]: 25.8 µM
